Results published in ChEMBL document CHEMBL1201862, “PubChem BioAssay data set” (2004).
The source made the active and inactive calls.

Columns and labels:
[1] = molecular target: T1, Protein RecA (Mycobacterium tuberculosis, UniProt P9WHJ3); assay: Fluorescence Cell-Free Homogeneous Dose Retest to Identify Inhibitors of RecA-Intein Splicing Activity. [Related pubchem assays (depositor defined):AID2097, AID2223, AID489010, AID492950]; type: functional
T1 sequence (P9WHJ3 whole entry): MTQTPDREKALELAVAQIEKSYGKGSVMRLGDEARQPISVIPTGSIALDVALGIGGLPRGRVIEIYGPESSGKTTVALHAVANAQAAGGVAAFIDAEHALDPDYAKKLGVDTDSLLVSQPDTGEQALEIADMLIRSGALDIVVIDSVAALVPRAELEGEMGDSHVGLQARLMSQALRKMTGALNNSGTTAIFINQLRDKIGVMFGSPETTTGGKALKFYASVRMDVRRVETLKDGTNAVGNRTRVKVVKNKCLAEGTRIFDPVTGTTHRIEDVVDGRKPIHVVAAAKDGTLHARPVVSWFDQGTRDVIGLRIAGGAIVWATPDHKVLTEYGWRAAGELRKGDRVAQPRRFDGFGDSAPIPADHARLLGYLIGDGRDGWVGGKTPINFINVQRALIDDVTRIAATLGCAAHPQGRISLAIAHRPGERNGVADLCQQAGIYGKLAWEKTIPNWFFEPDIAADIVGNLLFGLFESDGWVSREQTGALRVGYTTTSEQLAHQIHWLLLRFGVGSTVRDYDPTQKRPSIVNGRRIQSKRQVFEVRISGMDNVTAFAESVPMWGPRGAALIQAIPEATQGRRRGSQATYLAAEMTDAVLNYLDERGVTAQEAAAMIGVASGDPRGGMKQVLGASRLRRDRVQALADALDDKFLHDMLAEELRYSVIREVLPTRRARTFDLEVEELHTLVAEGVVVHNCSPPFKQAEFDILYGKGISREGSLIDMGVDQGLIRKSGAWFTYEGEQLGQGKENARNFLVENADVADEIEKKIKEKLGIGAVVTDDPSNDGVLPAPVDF

[2] = test system: INS1; assay: beta cell apoptosis inhibitors, cytokine rescue, dose response, luminescence, retest (AID 449756); type: functional, cell-based; settings: Rattus norvegicus;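 also: cell death triggered by IL-1 beta plus TNF-alpha plus IFN-gamma mixture; protective hits raise ATP signal compared with cytokine alone wells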
[3] = inhibitors of firefly luciferase expression or activity, dose response, H4 neuroglioma cells, luminescence (AID 1990); type: functional, cell-based
[4] = molecular target: T2, Oxysterols receptor LXR-beta (Homo sapiens, UniProt P55055); type: functional, cell-based;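 also: Cell-based luminescence dose-response assay of agonist activity at LXR, run as a confirmatory counterscreen to a daf-12 agonist screen; HEK293 cells with Gal4-LXR fusion and GAL4-driven luciferase reporter; agonist potency from rising luciferase signal of a Gal4-LXR reporter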
T2 sequence (P55055 whole entry): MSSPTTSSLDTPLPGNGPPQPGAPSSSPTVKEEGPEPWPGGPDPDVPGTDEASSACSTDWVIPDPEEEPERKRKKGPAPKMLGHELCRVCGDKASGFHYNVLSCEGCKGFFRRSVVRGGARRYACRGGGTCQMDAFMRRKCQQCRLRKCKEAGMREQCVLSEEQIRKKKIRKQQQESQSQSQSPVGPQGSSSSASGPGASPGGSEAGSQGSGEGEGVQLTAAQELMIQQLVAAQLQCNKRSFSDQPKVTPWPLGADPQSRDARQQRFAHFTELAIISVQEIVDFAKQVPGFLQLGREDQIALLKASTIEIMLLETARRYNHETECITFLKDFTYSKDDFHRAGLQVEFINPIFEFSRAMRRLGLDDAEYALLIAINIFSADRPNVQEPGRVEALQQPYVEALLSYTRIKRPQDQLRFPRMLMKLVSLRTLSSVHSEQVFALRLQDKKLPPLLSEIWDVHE

[5] = molecular target: T3, Sentrin-specific protease 7 (Homo sapiens, UniProt Q9BQF6); type: functional;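 also: Luminescence-based dose-response confirmation of ultra-high-throughput screening hits, measuring inhibition of SENP7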
T3 sequence (Q9BQF6 whole entry): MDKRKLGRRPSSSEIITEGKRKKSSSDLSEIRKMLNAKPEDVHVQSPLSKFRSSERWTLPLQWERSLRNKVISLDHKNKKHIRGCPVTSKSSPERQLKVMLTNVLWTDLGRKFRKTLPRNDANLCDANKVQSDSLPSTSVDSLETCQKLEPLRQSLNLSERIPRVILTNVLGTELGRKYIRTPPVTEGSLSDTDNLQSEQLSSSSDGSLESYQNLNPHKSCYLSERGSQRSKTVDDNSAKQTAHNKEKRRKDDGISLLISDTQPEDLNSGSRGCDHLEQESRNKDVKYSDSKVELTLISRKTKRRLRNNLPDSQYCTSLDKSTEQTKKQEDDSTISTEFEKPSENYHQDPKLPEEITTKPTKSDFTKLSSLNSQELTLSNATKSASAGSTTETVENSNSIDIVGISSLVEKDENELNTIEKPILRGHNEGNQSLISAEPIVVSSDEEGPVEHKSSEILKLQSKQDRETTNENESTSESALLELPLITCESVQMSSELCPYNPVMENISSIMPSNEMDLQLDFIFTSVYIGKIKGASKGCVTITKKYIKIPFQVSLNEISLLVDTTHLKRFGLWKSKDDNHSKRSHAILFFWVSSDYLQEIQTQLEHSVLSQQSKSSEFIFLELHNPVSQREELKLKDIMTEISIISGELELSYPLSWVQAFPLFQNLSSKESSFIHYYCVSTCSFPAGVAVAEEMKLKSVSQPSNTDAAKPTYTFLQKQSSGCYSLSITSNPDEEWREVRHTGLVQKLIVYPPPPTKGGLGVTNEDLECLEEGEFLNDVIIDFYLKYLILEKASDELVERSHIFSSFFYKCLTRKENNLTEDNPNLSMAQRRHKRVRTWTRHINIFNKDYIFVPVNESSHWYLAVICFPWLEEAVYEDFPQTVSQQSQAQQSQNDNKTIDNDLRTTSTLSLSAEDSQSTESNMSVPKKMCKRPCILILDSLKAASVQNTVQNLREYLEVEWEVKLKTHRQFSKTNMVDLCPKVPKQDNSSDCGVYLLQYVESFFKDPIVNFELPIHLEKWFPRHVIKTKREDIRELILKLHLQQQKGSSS

[6] = molecular target: Dual specificity protein kinase CLK4 (Homo sapiens, UniProt Q9HAZ1); type: functional
[7] = molecular target: Aurora kinase A (Homo sapiens, UniProt O14965); type: functional;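 also: value from the Navigating the Kinome kinase panel profiling, panel entry STK6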
[8] = molecular target: Serine/threonine-protein kinase D3 (Homo sapiens, UniProt O94806); type: functional;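 also: determined within a kinase panel screen, with PRKCN as the panel member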
[9] = molecular target: BDNF/NT-3 growth factors receptor (Homo sapiens, UniProt Q16620); type: functional;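 also: NTRK2 measured as one member of a broad kinome-wide kinase profiling panel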
[10] = molecular target: Leucine-rich repeat serine/threonine-protein kinase 2 (Homo sapiens, UniProt Q5S007); type: functional;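 also: value from a broad kinome-wide panel profiling study in which LRRK2 was one of the kinases tested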
[11] = molecular target: Mitogen-activated protein kinase 8 (Homo sapiens, UniProt P45983); type: functional;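 also: value comes from one member of a kinome-wide kinase profiling panel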
[12] = molecular target: cAMP-dependent protein kinase catalytic subunit PRKX (Homo sapiens, UniProt P51817); type: functional
[13] = molecular target: Mitogen-activated protein kinase kinase kinase kinase 4 (Homo sapiens, UniProt O95819); type: functional
[14] = molecular target: High affinity nerve growth factor receptor (Homo sapiens, UniProt P04629); type: functional;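 also: NTRK1 tested as one member of a kinome-wide profiling panel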
Sequence of High affinity nerve growth factor receptor (P04629 whole entry): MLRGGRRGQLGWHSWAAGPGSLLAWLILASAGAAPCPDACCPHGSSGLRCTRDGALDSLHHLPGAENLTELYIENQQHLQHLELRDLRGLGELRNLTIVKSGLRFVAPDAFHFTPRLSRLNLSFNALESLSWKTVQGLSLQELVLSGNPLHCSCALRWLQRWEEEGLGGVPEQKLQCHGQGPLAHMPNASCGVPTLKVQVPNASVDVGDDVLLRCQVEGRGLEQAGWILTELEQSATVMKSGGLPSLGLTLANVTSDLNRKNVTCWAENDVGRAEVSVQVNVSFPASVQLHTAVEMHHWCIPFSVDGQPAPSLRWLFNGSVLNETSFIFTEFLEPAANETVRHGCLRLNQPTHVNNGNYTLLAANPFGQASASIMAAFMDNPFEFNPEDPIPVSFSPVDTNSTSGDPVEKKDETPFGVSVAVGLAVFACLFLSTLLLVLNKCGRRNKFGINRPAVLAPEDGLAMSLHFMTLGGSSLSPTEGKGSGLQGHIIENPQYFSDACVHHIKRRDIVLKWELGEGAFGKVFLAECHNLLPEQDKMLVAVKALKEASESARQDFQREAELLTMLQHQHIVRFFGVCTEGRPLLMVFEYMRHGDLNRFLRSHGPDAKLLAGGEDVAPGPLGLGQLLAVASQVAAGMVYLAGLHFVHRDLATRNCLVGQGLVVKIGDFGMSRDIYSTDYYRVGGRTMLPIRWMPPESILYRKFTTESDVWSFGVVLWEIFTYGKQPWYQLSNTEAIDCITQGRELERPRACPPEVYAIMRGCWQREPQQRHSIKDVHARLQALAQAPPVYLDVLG

Sequence of Mitogen-activated protein kinase 8 (P45983 whole entry): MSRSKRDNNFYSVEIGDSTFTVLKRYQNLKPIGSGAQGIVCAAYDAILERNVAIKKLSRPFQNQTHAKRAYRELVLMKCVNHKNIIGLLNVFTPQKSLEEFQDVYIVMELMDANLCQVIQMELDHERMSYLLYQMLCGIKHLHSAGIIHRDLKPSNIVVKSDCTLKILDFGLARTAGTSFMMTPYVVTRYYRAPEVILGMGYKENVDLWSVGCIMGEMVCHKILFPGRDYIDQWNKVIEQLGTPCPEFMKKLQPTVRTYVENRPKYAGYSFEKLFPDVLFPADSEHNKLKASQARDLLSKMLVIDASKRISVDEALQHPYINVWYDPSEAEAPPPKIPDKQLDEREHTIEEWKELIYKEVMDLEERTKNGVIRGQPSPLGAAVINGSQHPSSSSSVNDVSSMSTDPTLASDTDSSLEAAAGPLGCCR
Sequence of Aurora kinase A (O14965 whole entry): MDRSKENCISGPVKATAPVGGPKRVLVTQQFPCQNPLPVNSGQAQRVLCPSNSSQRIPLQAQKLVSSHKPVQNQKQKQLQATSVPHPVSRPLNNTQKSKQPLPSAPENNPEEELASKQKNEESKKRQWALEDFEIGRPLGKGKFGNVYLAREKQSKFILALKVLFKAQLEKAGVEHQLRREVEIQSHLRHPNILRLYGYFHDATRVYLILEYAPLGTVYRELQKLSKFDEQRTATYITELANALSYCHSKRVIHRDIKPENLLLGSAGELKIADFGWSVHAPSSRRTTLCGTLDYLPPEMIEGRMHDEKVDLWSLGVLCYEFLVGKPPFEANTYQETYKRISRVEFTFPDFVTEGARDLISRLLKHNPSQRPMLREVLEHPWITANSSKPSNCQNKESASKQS
Sequence of Mitogen-activated protein kinase kinase kinase kinase 4 (O95819 whole entry): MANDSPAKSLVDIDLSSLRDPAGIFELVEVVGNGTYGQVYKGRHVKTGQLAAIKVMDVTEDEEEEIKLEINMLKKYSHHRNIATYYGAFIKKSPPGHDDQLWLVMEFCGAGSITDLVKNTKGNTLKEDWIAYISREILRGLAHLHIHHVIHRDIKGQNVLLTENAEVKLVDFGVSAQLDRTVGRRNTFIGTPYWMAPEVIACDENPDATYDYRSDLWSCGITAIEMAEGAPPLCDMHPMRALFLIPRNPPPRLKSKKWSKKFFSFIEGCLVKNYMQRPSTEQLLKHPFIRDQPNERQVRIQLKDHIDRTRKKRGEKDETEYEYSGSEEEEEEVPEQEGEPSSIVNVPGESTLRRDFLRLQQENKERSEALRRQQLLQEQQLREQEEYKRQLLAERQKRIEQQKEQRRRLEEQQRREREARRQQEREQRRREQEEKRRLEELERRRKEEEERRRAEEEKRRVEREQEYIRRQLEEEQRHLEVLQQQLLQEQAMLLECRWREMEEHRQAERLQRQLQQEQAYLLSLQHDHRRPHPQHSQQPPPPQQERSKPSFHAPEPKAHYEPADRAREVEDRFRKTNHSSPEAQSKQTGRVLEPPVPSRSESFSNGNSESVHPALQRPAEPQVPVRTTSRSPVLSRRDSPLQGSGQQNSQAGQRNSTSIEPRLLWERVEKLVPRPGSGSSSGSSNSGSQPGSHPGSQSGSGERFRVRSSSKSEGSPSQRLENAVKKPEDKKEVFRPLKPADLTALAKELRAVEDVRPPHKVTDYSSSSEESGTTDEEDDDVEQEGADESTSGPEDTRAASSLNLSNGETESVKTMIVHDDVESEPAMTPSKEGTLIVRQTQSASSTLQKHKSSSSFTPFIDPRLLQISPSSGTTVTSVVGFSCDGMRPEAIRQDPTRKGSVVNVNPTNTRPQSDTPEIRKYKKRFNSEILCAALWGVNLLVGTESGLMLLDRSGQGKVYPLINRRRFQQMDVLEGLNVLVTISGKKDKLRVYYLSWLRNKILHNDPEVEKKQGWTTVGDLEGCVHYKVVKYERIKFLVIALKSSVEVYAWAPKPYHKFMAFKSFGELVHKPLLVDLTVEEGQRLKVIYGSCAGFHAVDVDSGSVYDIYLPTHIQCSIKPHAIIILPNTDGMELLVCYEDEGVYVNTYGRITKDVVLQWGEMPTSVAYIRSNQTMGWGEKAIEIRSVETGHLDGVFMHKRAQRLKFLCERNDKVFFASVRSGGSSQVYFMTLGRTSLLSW
Sequence of Serine/threonine-protein kinase D3 (O94806 whole entry): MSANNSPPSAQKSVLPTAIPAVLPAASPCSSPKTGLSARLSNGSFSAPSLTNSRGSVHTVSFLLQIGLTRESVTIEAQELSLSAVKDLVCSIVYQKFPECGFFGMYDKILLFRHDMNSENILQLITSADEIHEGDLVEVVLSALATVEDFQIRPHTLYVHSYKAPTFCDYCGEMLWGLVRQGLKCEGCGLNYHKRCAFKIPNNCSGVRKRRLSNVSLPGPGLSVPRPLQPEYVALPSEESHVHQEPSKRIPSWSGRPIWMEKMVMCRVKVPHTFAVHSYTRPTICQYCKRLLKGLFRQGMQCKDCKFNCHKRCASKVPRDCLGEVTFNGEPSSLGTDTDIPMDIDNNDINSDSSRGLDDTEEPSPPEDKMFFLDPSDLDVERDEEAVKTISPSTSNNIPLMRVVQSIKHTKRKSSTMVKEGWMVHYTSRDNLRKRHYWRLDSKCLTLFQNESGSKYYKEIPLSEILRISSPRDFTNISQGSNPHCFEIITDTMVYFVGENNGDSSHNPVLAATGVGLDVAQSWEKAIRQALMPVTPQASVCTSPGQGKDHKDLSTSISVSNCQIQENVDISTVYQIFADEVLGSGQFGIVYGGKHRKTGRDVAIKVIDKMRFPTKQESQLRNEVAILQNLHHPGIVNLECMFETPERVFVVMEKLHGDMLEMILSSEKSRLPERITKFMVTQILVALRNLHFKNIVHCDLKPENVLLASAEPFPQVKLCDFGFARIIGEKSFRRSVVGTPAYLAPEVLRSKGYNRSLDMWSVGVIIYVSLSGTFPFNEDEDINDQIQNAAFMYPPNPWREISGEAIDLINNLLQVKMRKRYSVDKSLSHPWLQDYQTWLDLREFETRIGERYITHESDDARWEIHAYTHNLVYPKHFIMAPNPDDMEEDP
Sequence of BDNF/NT-3 growth factors receptor (Q16620 whole entry): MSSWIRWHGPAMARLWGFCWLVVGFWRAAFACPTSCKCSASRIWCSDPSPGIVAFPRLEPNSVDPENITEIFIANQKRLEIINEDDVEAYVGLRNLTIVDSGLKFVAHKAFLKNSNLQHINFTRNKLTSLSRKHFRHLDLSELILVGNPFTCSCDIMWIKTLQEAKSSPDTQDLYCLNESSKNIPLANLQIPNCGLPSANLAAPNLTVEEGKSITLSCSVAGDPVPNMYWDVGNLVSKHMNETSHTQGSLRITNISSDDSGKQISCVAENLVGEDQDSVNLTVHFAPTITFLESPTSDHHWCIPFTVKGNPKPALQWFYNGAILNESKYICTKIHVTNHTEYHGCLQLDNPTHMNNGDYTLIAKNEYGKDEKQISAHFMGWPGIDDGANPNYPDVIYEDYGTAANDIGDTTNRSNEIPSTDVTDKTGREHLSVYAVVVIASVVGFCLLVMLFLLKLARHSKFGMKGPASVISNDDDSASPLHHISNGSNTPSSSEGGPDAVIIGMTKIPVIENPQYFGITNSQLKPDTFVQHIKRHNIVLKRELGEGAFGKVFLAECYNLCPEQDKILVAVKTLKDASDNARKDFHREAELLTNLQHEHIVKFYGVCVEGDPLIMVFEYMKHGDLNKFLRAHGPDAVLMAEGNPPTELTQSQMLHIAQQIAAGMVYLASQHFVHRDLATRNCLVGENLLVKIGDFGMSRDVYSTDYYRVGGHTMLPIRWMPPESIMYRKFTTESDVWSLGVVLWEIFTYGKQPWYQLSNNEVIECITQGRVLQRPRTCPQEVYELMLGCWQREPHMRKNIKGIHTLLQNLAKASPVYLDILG
Sequence of Dual specificity protein kinase CLK4 (Q9HAZ1 whole entry): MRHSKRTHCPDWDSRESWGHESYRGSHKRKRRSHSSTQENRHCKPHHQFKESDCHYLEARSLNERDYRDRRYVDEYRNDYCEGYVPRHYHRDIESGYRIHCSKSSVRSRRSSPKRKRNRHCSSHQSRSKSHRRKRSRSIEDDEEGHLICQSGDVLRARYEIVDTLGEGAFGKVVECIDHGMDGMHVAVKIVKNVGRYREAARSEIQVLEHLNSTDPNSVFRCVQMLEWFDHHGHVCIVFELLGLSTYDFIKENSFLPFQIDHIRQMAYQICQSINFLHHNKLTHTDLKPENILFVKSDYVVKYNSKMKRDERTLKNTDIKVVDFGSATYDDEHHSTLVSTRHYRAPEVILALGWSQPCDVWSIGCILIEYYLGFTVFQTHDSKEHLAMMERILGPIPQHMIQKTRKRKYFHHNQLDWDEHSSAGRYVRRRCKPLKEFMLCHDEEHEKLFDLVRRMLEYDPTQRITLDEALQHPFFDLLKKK

For `CN1CCN(C(c2ccc(C(F)(F)F)cc2)c2cc(Cl)c3cccnc3c2O)CC1` (centres undefined), the EC50 [1] was 0.932 µM (active), the AC50 [2] was 3.18 µM (active) and the EC50 [3] was 10.5 µM (active).
In the case of `NC(=O)c1c(NC(=O)c2cc3ccccc3o2)sc2c1CCC2`, the EC50 [4] is reported as > 67.5 µM (inactive) and the IC50 [5] is reported as 3.74 µM (active).
For `O=C(NC(CCO)c1ccccc1)c1ccc(-c2ccncc2)cc1` (centres undefined), the Ki [6] was 0.316 µM (active), the Ki [7] was > 1.58 µM (inactive) and the Ki [8] was > 3.98 µM (inactive). For the same compound, the Ki [9] was > 3.98 µM (inactive), the Ki [10] was > 2.51 µM (inactive) and the Ki [11] was > 5.01 µM (inactive). For the same compound, the Ki [12] was 0.316 µM (active), the Ki [13] was > 5.01 µM (inactive) and the Ki [14] was > 3.16 µM (inactive).
